Reference: patent US10485895B2, “Self-assembling peptide scaffolds” (CELLULAR AND MOLECULAR RESEARCH CENTER, IRAN UNIVERSITY OF …, priority 2016, dated 2019)

Tested on: Mg-63 cells
Assay: LDH cytotoxicity assay (LDH release as marker of dead cells)
Format: cell-based
Conditions: control group = 100%, aloe vera extract 5% (v/v), SDKP about 75 micrograms per milliliter, Fingolimod hydrochloride about 10 nanogram per milliliter, FIG. 3
Procedure: In some cases, lactate dehydrogenase (LDH) assays can be performed by assessing or measuring the LDH released into the media as a marker of dead cells. In this example, biocompatibility and cytotoxicity of the injectable scaffold of the present disclosure as a whole and its components were measured by an LDH cytotoxicity assay as follows.
Mg-63 cell line was the source of osteoblast cells in the following assays. Six test groups and one control group of Mg-63 cells were prepared for investigating the cytotoxicity effects of the present injectable scaffold and its components. FIG. 3 illustrates the data of LDH release from Mg-63 cells of six test groups and one control group. […]

## C[C@H](NC(=O)[C@H](CC(=O)O)NC(=O)[C@H](C)NC(=O)[C@H](CCCNC(=N)N)NC(=O)[C@H](C)NC(=O)[C@H](CC(=O)O)NC(=O)[C@H](C)NC(=O)[C@H](CCCNC(=N)N)NC(=O)[C@H](C)NC(=O)[C@H](CC(=O)O)NC(=O)[C@H](C)NC(=O)[C@H](CCCNC(=N)N)NC(=O)[C@H](C)NC(=O)[C@H](CC(=O)O)NC(=O)[C@H](C)NC(=O)[C@@H](N)CCCNC(=N)N)C(=O)O [R]
  LDH release: about 62.35%
